# pEC50: −log10 of the molar value. Activity calls are given as the source filed them. The calls are words filed in the database; no cut-off is given here.
# Key:
# Hepatitis C virus = assay: Antiviral activity against Hepatitis C virus infected in human HuH7 cells; assay type: functional, organism-based; conditions: Hepacivirus hominis; Huh-7
# [1] = Intrinsic clearance in human liver microsomes; assay type: ADME; conditions: read-out: CLH
# [2] = Octanol-neutral aqueous buffer partition coefficient, log D of the compound at pH 7.4; assay type: physicochemical
# [3] = Oral bioavailability in rat at 2 mg/kg administered as suspension; assay type: ADME, organism-based; conditions: in vivo
# [4] = biological target: Adenosine receptor A2a (Homo sapiens) (UniProt P29274); assay: Inhibition of adenosine A2A receptor (unknown origin) at 10 uM relative to control
# [5] = Clearance in rat at 1 mg/kg, iv; assay type: ADME, organism-based; parameters: dose 1 mg/kg, route intravenous; conditions: in vivo
# [6] = biological target: T1, Adenosine receptor A1 (Homo sapiens) (UniProt P30542); assay: Inhibition of adenosine A1 receptor (unknown origin) at 10 uM relative to control
# T1 sequence (whole entry): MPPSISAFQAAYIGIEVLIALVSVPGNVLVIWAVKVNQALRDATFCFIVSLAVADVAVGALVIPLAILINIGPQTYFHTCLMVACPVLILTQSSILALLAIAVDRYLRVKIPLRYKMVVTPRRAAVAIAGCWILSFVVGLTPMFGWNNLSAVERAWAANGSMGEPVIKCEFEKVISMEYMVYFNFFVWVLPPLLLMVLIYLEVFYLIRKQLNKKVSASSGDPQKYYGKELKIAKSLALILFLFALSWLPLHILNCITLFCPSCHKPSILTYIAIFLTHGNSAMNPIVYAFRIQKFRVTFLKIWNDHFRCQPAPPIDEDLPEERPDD
# [7] = Volume of distribution at steady state in dog at 0.1 mg/kg, iv; assay type: ADME, organism-based, Canis lupus familiaris; parameters: dose 0.1 mg/kg, route intravenous; conditions: in vivo, read-out: Vdss
# [8] = Clearance in dog at 0.1 mg/kg, iv; assay type: ADME, organism-based, Canis lupus familiaris; parameters: dose 0.1 mg/kg, route intravenous; conditions: in vivo
# [9] = Terminal half life in dog at 0.1 mg/kg, iv; assay type: ADME, organism-based, Canis lupus familiaris; parameters: dose 0.1 mg/kg, route intravenous; conditions: in vivo, read-out: beta t1/2 (converted)
# [10] = Volume of distribution at steady state in rat at 1 mg/kg, iv; assay type: ADME, organism-based; parameters: dose 1 mg/kg, route intravenous; conditions: in vivo, read-out: Vdss
# [11] = Oral bioavailability in rat at 2 mg/kg administered as solution; assay type: ADME, organism-based; conditions: in vivo
# [12] = Oral bioavailability in rat at 2 mg/kg administered as nano suspension; assay type: ADME, organism-based; conditions: in vivo
# [13] = Terminal half life in rat at 1 mg/kg, iv; assay type: ADME, organism-based; parameters: dose 1 mg/kg, route intravenous; conditions: in vivo, read-out: beta t1/2 (converted)
# [14] = biological target: Acetylcholinesterase (Homo sapiens) (UniProt P22303); assay: Inhibition of human acetylcholinesterase at 10 uM relative to control
# Mus musculus = assay: Stimulation of IFN-alpha production in po dosed CD-1 mouse; assay type: functional, organism-based
# Adenosine receptor A2a (Homo sapiens), sequence (P29274 whole entry): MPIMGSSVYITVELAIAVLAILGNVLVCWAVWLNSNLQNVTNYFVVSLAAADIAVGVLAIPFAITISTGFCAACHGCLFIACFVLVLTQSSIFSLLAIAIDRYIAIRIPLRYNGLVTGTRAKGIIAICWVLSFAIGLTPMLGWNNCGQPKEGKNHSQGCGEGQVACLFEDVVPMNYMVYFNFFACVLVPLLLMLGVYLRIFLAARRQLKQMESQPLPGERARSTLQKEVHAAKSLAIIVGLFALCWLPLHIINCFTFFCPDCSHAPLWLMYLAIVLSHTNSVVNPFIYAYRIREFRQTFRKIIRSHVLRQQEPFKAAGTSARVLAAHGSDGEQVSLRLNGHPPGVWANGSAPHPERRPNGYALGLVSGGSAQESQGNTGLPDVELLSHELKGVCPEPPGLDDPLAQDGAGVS
# Acetylcholinesterase (Homo sapiens), sequence (P22303 whole entry): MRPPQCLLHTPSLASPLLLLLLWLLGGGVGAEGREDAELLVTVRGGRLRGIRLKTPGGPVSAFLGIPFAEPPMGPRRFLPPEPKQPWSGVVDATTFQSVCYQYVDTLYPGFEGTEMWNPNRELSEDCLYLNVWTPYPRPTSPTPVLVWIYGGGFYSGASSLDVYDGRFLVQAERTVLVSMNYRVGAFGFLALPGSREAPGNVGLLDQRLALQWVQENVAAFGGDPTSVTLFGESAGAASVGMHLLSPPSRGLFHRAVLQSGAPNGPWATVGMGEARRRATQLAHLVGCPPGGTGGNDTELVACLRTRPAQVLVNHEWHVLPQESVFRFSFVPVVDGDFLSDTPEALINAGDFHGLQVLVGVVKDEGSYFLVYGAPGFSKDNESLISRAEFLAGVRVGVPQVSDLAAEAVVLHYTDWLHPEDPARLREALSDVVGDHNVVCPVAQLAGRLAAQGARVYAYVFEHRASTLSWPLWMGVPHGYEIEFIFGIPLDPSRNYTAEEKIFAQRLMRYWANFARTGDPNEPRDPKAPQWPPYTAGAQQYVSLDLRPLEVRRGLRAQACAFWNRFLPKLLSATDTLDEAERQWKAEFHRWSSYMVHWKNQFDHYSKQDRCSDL
SMILES,Activity (Hepatitis C virus),microsomal CLint [1] [µL/min/mg],logD [2],other results
Cc1nc(N)c2sc(=O)n(Cc3ccccc3)c2n1,inactive,–,–,–
O=c1[nH]c2cnc(C(F)(F)F)cc2n1Cc1ccccc1,–,< 7,3.1,–
Cc1nc(N)c2c(n1)N(Cc1ccccc1)C(=O)NC2,inactive,16,1.6,–
Cc1nc(N)c2c(n1)N(Cc1ccccc1)C(=O)C2,inactive,< 7,2,–
Nc1nc(C(F)(F)F)cc2c1[nH]c(=O)n2Cc1ccccc1,–,< 7,–,bioavailability [3]: 69%; inhibition [4]: 32%; clearance [5]: 1.98 L/h/kg; inhibition [6]: 29%; Vd [7]: 2.3 L/kg; clearance [8]: 0.36 L/h/kg; half-life [9]: 5.5 h; Vd [10]: 2.7 L/kg; bioavailability [11]: 48%; bioavailability [12]: 71%; half-life [13]: 1 h; inhibition [14]: 70%; pEC50 (Mus musculus): 7.24
Cc1cc2c([nH]c(=O)n2Cc2ccccc2)c(N)n1,inactive,< 7,2.3,–
Nc1nccc2c1[nH]c(=O)n2Cc1ccccc1,–,< 7,1.9,–
O=c1[nH]n2c(O)nc(C3CC3)cc2c1Cc1ccccc1,inactive,< 7,1.7,–
Nc1cc(C2CC2)nc2c(Cc3ccccc3)c(=O)[nH]n12,inactive,< 7,1.6,–
Cc1nc(N)c2[nH]c(=O)n(Cc3ccccc3)c2c1C,inactive,< 7,2.6,–
CCCc1cc2c([nH]c(=O)n2Cc2ccccc2)c(N)n1,–,14,3.1,–
Cc1cc(N)c2[nH]c(=O)n(Cc3ccccc3)c2n1,inactive,< 7,2.3,–
Cc1nc(N)c2nc(O)n(Cc3ccccc3)c2n1,inactive,< 7,–,–
COCCNc1nc(N)c2c(O)nn(Cc3ccccc3)c2n1,inactive,–,–,–
CC(C)c1cc2c([nH]c(=O)n2Cc2ccccc2)c(N)n1,–,< 7,3.1,–
